Assay results: US20050197350A1, “Novel quinoline, tetrahydroquinazoline, and pyrimidine derivatives and methods of treatment related to the use thereof” (TAISHO PHARMACEUTICAL CO., LTD., priority 2003, published 2005)

These compounds were tested on MCH receptors (assay: MCH receptor activity class (method not given)). Conditions: not given.
Compound `Cc1cccc(C(=O)N[C@H]2CC[C@@H](Nc3cc(C)c4ccccc4n3)CC2)c1` [Example 2543, 3-methyl-N-{cis-4-[(4-methylquinolin-2-yl)amino]cyclohexyl}benzamide] has a class of 1.
In the case of `Cc1ccc(C(=O)N[C@H]2CC[C@@H](Nc3cc(C)c4ccccc4n3)CC2)cc1` [Example 2544, 4-methyl-N-{cis-4-[(4-methylquinolin-2-yl)amino]cyclohexyl}benzamide], the class is reported as 1.
`Cc1cc(N[C@H]2CC[C@@H](NC(=O)c3ccc(F)cc3)CC2)nc2ccccc12` [Example 2545, 4-fluoro-N-{cis-4-[(4-methylquinolin-2-yl)amino]cyclohexyl}benzamide] showed a class of 1.
`Cc1cc(N[C@H]2CC[C@@H](NC(=O)c3cccc(C(F)(F)F)c3)CC2)nc2ccccc12` [Example 2546, N-{cis-4-[(4-methylquinolin-2-yl)amino]cyclohexyl}-3-(trifluoromethyl)benzamide] was tested, and the class was 3.
`Cc1cc(N[C@H]2CC[C@@H](NC(=O)c3cccc(Cl)c3)CC2)nc2ccccc12` [Example 2547, 3-chloro-N-{cis-4-[(4-methylquinolin-2-yl)amino]cyclohexyl}benzamide] showed a class of 1.
Compound `Cc1cc(N[C@H]2CC[C@@H](NC(=O)c3cc(C(F)(F)F)cc(C(F)(F)F)c3)CC2)nc2ccccc12` [Example 2548, N-{cis-4-[(4-methylquinolin-2-yl)amino]cyclohexyl}-3,5-bis(trifluoromethyl)benzamide] has a class of 1.
Compound `COc1cccc(C(=O)N[C@H]2CC[C@@H](Nc3cc(C)c4ccccc4n3)CC2)c1` [Example 2549, 3-methoxy-N-{cis-4-[(4-methylquinolin-2-yl)amino]cyclohexyl}benzamide] has a class of 1.
`Cc1cc(N[C@H]2CC[C@@H](NC(=O)c3cccc(C#N)c3)CC2)nc2ccccc12` [Example 2550, 3-cyano-N-{cis-4-[(4-methylquinolin-2-yl)amino]cyclohexyl}benzamide] showed a class of 1.
With `Cc1cc(N[C@H]2CC[C@@H](NC(=O)COc3ccc(Cl)cc3)CC2)nc2ccccc12` [Example 2551, 2-(4-chlorophenoxy)-N-{cis-4-[(4-methylquinolin-2-yl)amino]cyclohexyl}acetamide] the class was 1.
`COc1cc(C(=O)N[C@H]2CC[C@@H](Nc3cc(C)c4ccccc4n3)CC2)cc(OC)c1OC` [Example 2552, 3,4,5-trimethoxy-N-{cis-4-[(4-methylquinolin-2-yl)amino]cyclohexyl}benzamide] showed a class of 1.
`COc1cc(OC)cc(C(=O)N[C@H]2CC[C@@H](Nc3cc(C)c4ccccc4n3)CC2)c1` [Example 2553, 3,5-dimethoxy-N-{cis-4-[(4-methylquinolin-2-yl)amino]cyclohexyl}benzamide] was tested, and the class was 1.
In the case of `COc1cccc(OCC(=O)N[C@H]2CC[C@@H](Nc3cc(C)c4ccccc4n3)CC2)c1` [Example 2554, 2-(3-methoxyphenoxy)-N-{cis-4-[(4-methylquinolin-2-yl)amino]cyclohexyl}acetamide], the class is reported as 1.
For `Cc1cc(N[C@H]2CC[C@@H](NC(=O)[C@H](O)c3cccc(Cl)c3)CC2)nc2ccccc12` [Example 2555, (2R)-2-(3-chlorophenyl)-2-hydroxy-N-{cis-4-[(4-methylquinolin-2-yl)amino]cyclohexyl}acetamide], the class was 1.
For `Cc1cccc(OCC(=O)N[C@H]2CC[C@@H](Nc3cc(C)c4ccccc4n3)CC2)c1` [Example 2556, 2-(3-methylphenoxy)-N-{cis-4-[(4-methylquinolin-2-yl)amino]cyclohexyl}acetamide], the class was 1.
Work on `Cc1cc(N[C@H]2CC[C@@H](NC(=O)c3ccc(Br)o3)CC2)nc2ccccc12` [Example 2557, 5-bromo-N-{cis-4-[(4-methylquinolin-2-yl)amino]cyclohexyl}-2-furamide] yielded a class of 1.
With `Cc1cc(N[C@H]2CC[C@@H](NC(=O)Nc3ccc(OCc4ccccc4)cc3)CC2)nc2ccccc12` [Example 2558, N-[4-(benzyloxy)phenyl]-N′-{cis-4-[(4-methylquinolin-2-yl)amino]cyclohexyl}urea] the class was 2.
In the case of `Cc1cc(N[C@H]2CC[C@@H](NC(=O)Nc3ccc(Oc4ccccc4)cc3)CC2)nc2ccccc12` [Example 2559, N-{cis-4-[(4-methylquinolin-2-yl)amino]cyclohexyl}-N′-(4-phenoxyphenyl)urea], the class is reported as 1.
Work on `Cc1cc(N[C@H]2CC[C@@H](NC(=O)Nc3cccc(Oc4ccccc4)c3)CC2)nc2ccccc12` [Example 2560, N-{cis-4-[(4-methylquinolin-2-yl)amino]cyclohexyl}-N′-(3-phenoxyphenyl)urea] yielded a class of 2.
For `Cc1cc(N[C@H]2CC[C@@H](NC(=O)Nc3ccccc3Oc3ccccc3)CC2)nc2ccccc12` [Example 2561, N-{cis-4-[(4-methylquinolin-2-yl)amino]cyclohexyl}-N′-(2-phenoxyphenyl)urea], the class was 1.
`Cc1cccc(C(=O)N[C@H]2CC[C@@H](Nc3ncc(C)c(N(C)C)n3)CC2)c1` [Example 2562, N-(cis-4-{[4-(dimethylamino)-5-methylpyrimidin-2-yl]amino}cyclohexyl)-3-methylbenzamide] showed a class of 1.
With `COc1cccc(C(=O)N[C@H]2CC[C@@H](Nc3ncc(C)c(N(C)C)n3)CC2)c1` [Example 2563, N-(cis-4-{[4-(dimethylamino)-5-methylpyrimidin-2-yl]amino}cyclohexyl)-3-methoxybenzamide] the class was 1.
`COc1cccc(C(=O)N[C@H]2CC[C@@H](Nc3nc(C)cc(N(C)C)n3)CC2)c1` [Example 2564, N-(cis-4-{[4-(dimethylamino)-6-methylpyrimidin-2-yl]amino}cyclohexyl)-3-methoxybenzamide] showed a class of 1.
Work on `Cc1ccc(C(=O)N[C@H]2CC[C@@H](Nc3nc(C)cc(N(C)C)n3)CC2)cc1` [Example 2565, N-(cis-4-{[4-(dimethylamino)-6-methylpyrimidin-2-yl]amino}cyclohexyl)-4-methylbenzamide] yielded a class of 1.
`Cc1cc(N(C)C)nc(N[C@H]2CC[C@@H](NC(=O)c3ccc(Cl)cc3)CC2)n1` [Example 2566, 4-chloro-N-(cis-4-{[4-(dimethylamino)-6-methylpyrimidin-2-yl]amino}cyclohexyl)benzamide] showed a class of 1.
Work on `Cc1cc(N(C)C)nc(N[C@H]2CC[C@@H](NC(=O)c3cccc(Cl)c3)CC2)n1` [Example 2567, 3-chloro-N-(cis-4-{[4-(dimethylamino)-6-methylpyrimidin-2-yl]amino}cyclohexyl)benzamide] yielded a class of 1.
Work on `Cc1cc(N(C)C)nc(N[C@H]2CC[C@@H](NC(=O)c3ccc(F)c(F)c3)CC2)n1` [Example 2568, N-(cis-4-{[4-(dimethylamino)-6-methylpyrimidin-2-yl]amino}cyclohexyl)-3,4-difluorobenzamide] yielded a class of 1.
For `Cc1cc(N(C)C)nc(N[C@H]2CC[C@@H](NC(=O)c3ccc(OC(F)(F)F)cc3)CC2)n1` [Example 2569, N-(cis-4-{[4-(dimethylamino)-6-methylpyrimidin-2-yl]amino}cyclohexyl)-4-(trifluoromethoxy)benzamide], the class was 3.
`Cc1cc(N(C)C)nc(N[C@H]2CC[C@@H](NC(=O)c3ccc(F)cc3)CC2)n1` [Example 2570, N-(cis-4-{[4-(dimethylamino)-6-methylpyrimidin-2-yl]amino}cyclohexyl)-4-fluorobenzamide] gave a class of 1.
Work on `Cc1cc(N(C)C)nc(N[C@H]2CC[C@@H](C(=O)NCc3cccc(I)c3)CC2)n1` [Example 2571, cis-4-{[4-(dimethylamino)-6-methylpyrimidin-2-yl]amino}-N-(3-iodobenzyl)cyclohexanecarboxamide] yielded a class of 1.
Work on `Cc1cc(N(C)C)nc(N[C@H]2CC[C@@H](C(=O)NCc3ccc(Cl)cc3Cl)CC2)n1` [Example 2572, cis-N-(2,4-dichlorobenzyl)-4-{[4-(dimethylamino)-6-methylpyrimidin-2-yl]amino}cyclohexanecarboxamide] yielded a class of 1.
Work on `Cc1cc(N(C)C)nc(N[C@H]2CC[C@@H](C(=O)NCc3cc(Cl)ccc3Cl)CC2)n1` [Example 2573, cis-N-(2,5-dichlorobenzyl)-4-{[4-(dimethylamino)-6-methylpyrimidin-2-yl]amino}cyclohexanecarboxamide] yielded a class of 1.
With `Cc1ccc(CNC(=O)[C@H]2CC[C@@H](Nc3nc(C)cc(N(C)C)n3)CC2)cc1` [Example 2574, cis-4-{[4-(dimethylamino)-6-methylpyrimidin-2-yl]amino}-N-(4-methylbenzyl)cyclohexanecarboxamide] the class was 1.

Same assay, conditions: class by percent of control at 10^-7 M or IC50
In the case of `CCOC(=O)c1cccc(NC(=S)N[C@H]2CC[C@@H](Nc3nc4c(c(N(C)C)n3)CCCC4)CC2)c1` [Example 1773], the class is reported as 3 (Class 3 The value of percent of control at 10^−7 M was more than 60% or the value of IC50 was more than 200 nM.).
For `CN(C)c1nc(N[C@H]2CC[C@@H](NC(=S)Nc3ccc(Cl)cc3C(F)(F)F)CC2)nc2c1CCCC2` [Example 1774], the class was 2 (Class 2: The value of percent of control at 10^−7 M was from 40% to 60% or the value of IC′50 was from 50 nM to 200 nM.).

Same assay, conditions: class by percent of control at 10^−7 M or IC50
In the case of `Cc1cnc(N[C@H]2CC[C@@H](NC(=O)C[S+]([O-])c3ccccc3Cl)CC2)nc1N(C)C` (relative stereo) [compound 2881, 2-[(2-chlorophenyl)sulfinyl]-N-(cis-4-{[4-(dimethylamino)-5-methylpyrimidin-2-yl]amino}cyclohexyl)acetamide], the class is reported as 1 (Class 1: The value of percent of control at 10^−7 M was less than 40% or the value of IC50 was less than 50 nM.).
`Cc1cnc(N[C@H]2CC[C@@H](NC(=O)C[S+]([O-])c3cccc(Br)c3)CC2)nc1N(C)C` (relative stereo) [compound 2882, 2-[(3-bromophenyl)sulfinyl]-N-(cis-4-{[4-(dimethylamino)-5-methylpyrimidin-2-yl]amino}cyclohexyl)acetamide] was tested, and the class was 1 (Class 1: The value of percent of control at 10^−7 M was less than 40% or the value of IC50 was less than 50 nM.).
With `Cc1cnc(N[C@H]2CC[C@@H](NC(=O)C[S+]([O-])c3ccc(F)c(F)c3)CC2)nc1N(C)C` (relative stereo) [compound 2883, 2-[(3,4-difluorophenyl)sulfinyl]-N-(cis-4-{[4-(dimethylamino)-5-methylpyrimidin-2-yl]amino}cyclohexyl)acetamide] the class was 2 (Class 2: The value of percent of control at 10^−7 M was from 40% to 60% or the value of IC′50 was from 50 nM to 200 nM.).
